Assay results: ChEMBL document CHEMBL1146785, “Synthesis and activity of phosphinic tripeptide inhibitors of cathepsin C” (Bioorg Med Chem Lett, 2004)
pKi: −log10 of the molar value.

These compounds were tested against T1, Dipeptidyl peptidase 1 (Mus musculus, UniProt P97821) (assay: Compound was evaluated to inhibit cathepsin C (Dipeptidyl peptidase I) in non competitive binding assay).
T1 sequence (P97821 whole entry): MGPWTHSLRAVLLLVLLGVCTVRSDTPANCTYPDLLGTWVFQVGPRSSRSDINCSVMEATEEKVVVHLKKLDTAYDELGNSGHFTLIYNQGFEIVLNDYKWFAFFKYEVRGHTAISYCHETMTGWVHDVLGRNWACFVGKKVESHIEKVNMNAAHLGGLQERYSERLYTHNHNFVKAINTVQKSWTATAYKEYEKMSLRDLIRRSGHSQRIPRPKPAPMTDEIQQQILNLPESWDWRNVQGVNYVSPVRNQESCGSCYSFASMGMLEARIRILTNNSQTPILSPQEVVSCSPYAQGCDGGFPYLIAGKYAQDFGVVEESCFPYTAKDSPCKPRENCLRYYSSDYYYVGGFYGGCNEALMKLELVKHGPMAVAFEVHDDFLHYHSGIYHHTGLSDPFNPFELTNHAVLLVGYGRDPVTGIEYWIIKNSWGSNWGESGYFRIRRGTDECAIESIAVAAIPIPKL

Going from `COC(=O)CCP(=O)(O)C(CCc1ccccc1)NC(=O)CN` (stereo not drawn) to `COC(=O)CCP(=O)(O)C(Cc1ccccc1)NC(=O)CN` (stereo not drawn), the pKi falls from 3.51 to 3.29 (0.22 log units). The first binds more tightly here.

`CC(C)CC(NC(=O)CN)P(=O)(O)CCC(=O)O` (stereo not drawn) and `COC(=O)CCP(=O)(O)C(CC(C)C)NC(=O)CN` (stereo not drawn) are within 0.2 log units of each other in pKi: 4.41 for the first, 4.40 for the second.

`COC(=O)CCP(=O)(O)C(NC(=O)CN)c1ccccc1` (stereo not drawn) and `NCC(=O)NC(c1ccccc1)P(=O)(O)CCC(=O)O` (stereo not drawn) are within 0.2 log units of each other in pKi: 3.73 for the first, 3.75 for the second.

Going from `NCC(=O)NC(Cc1ccccc1)P(=O)(O)CCC(=O)O` (stereo not drawn) to `NCC(=O)NC(CCc1ccccc1)P(=O)(O)CCC(=O)O` (stereo not drawn), the pKi rises from 3.37 to 3.73 (0.36 log units).
